One molecule from US20130184273A1, “BICYCLIC PYRIMIDINES” (Bayer Intellectual Property GmbH, priority 2010, published 2013) can be followed below.

Each structure is given as a SMILES string.

Experiment [1] has as its system KPL-4 breast cancer cell line. Nature of the experiment: Tumor cell proliferation assay (CellTiter-Glo). The class given is cell-based. Conditions: KPL4, 72 h drug exposure. The procedure: Compounds were tested in a cell-based assay that measures the capacity of the compounds to inhibit tumour cell proliferation following a 72 h drug exposure. Cell viability is determined using CellTiter-Glow® (CTG, Promega, cat #G7571/2/3). The CellTiter-Glo® Luminescent Cell Viability Assay is a homogeneous method to determine the number of viable cells in culture. Detection is based on using the luciferase reaction to measure the amount of ATP from viable cells. The amount of ATP in cells correlates with cell viability. Within minutes after a loss of membrane integrity, cells lose the ability to synthesize ATP, and endogenous ATPases destroy any remaining ATP; thus the levels of ATP fall precipitously.
Cells were plated at 3000-5000 cells/well (depending on the cell lines) in 90 μL growth medium on MTPs (Corning; #3603, black plate, clear flat bottom). For each cell line assayed, cells were plated onto a separate plate for determination of […] at t=0 hour and t=72 hour time points. Following overnight incubation at 37° C., chemiluminescence values for the t=0 samples were determined after adding 10 μl medium and 100 μl CTG solution according to manufacture protocol. Plates for the t=72 hour time points were treated with compounds diluted into growth medium at ten times final concentration added in 10 μL to the cell culture plate. Cells were then incubated for 72 hours at 37° C. Chemiluminescence values for the t=72 hour samples were determined. […] Experiments were controlled using a reference compound as standard.

Experiment [2] addresses T1, His-tagged human recombinant kinase full-length Akt2 (Homo sapiens, UniProt P31751).
T1 construct: His-tagged human recombinant kinase full-length Akt2; His; purchased Invitrogen PV 3975; host or cells: insect cells
Put plainly: Akt2 kinase assay (TR-FRET). The class given is biochemical. Conditions: 10 μM ATP, 60 min at 22° C., read-out: Akt2, median IC50. The source says:
Akt2 inhibitory activity of compounds of the present invention was quantified employing the Akt2 TR-FRET assay as described in the following paragraphs.
His-tagged human recombinant kinase full-length Akt2 expressed in insect cells and activated by PDK1 was purchased form Invitrogen (part number PV 3975). As substrate for the kinase reaction the biotinylated peptide biotin-Ahx-KKLNRTLSFAEPG (C-terminus in amide form) was used which can be purchased e.g. from the company Biosynthan GmbH (Berlin-Buch, Germany).
For the assay 50 nl of a 100 fold concentrated solution of the test compound in DMSO was pipetted into a black low volume 384well microtiter plate (Greiner Bio-One, Frickenhausen, Germany), 2 μl of a solution of Akt2 in assay buffer [50 mM TRIS/HCl pH 7.5, 5 mM MgCl2, 1 mM dithiothreitol, 0.02% (v/v) Triton X-100 (Sigma)] were added and the mixture was incubated for 15 min at 22° C. to allow pre-binding of the test compounds to the enzyme before the start of the kinase reaction. Then the kinase reaction was started by the addition of 3 μl of a solution of adenosine-tri-phosphate (ATP, 16.7 μM=>final conc. in the 5 μl assay volume is 10 μM) and substrate (1.67 μM=>final conc. in the 5 μl assay volume is 1 μM) in assay buffer and the resulting mixture was incubated for a reaction time of 60 min at 22° C. The concentration of Akt2 in the assay was adjusted depending of the activity of the enzyme lot and was chosen appropriate to have the assay in the linear range, typical enzyme concentrations were in the range of about 0.2 ng/μl (final conc. in the 5 μl assay volume).
The reaction was stopped by the addition of 5 μl of a solution of HTRF detection reagents (200 nM streptavidine-XL665 [Cisbio] and 1.5 nM anti-phosho-Serine antibody [Millipore, cat. #35-001] and 0.75 nM LANCE Eu-W 1024 labeled anti-mouse IgG antibody [Perkin Elmer]) in an aqueous EDTA-solution (100 mM EDTA, 0.1% (w/v) bovine serum albumin in 50 mM HEPES/NaOH pH 7.5).
The resulting mixture was incubated 1 h at 22° C. to allow the binding of the biotinylated phosphorylated peptide to the streptavidine-XL665 and the antibodies.
Subsequently the amount of phosphorylated substrate was evaluated by measurement of the resonance energy transfer from the anti-mouse-IgG-Eu-Chelate to the streptavidine-XL665. Therefore, the fluorescence emissions at 620 nm and 665 nm after excitation at 350 nm was measured in a TR-FRET reader, e.g. a Rubystar (BMG Labtechnologies, Offenburg, Germany) or a Viewlux (Perkin-Elmer). The ratio of the emissions at 665 nm and at […] was taken as the measure for the amount of phosphorylated substrate. The data were normalised (enzyme reaction without inhibitor=0% inhibition, all other assay components but no enzyme=100% inhibition).
(Time-resolved FRET reads energy transfer from a long-lived donor to a nearby acceptor.)

Experiment [3] relates to phospho-AKT at S473 in KPL4 breast tumour cell line. Nature of the experiment: Cellular p-AKT1/2/3-S473 assay. The format is cell-based. Conditions: KPL4 cells, treated with compounds for 2 hours; read-out: pAKT-S743 median IC50. The procedure: The molecular mechanism of action was investigated in a set of experiments to assess the inhibition of the PI3K-AKT-mTOR pathway in responsive cell lines such as KPL4 breast tumour cell line (PIK3CAH1047R, HER20/E and hormone independent). The phospho-substrates of PI3K-AKT-mTOR axis were used as the read-outs to reflect pathway inhibition. Cells were seeded at 60-80% confluency per well in 96-well cell culture plates. After overnight incubation at 37° C. 5% CO2, cells were treated with compounds and vehicle at 37° C. for 2 hours. Thereafter, cells were lysed in 150 μl lysis buffer and the levels of phospho-AKT at T308 and S473 and p-4E-BP1 at T70 sites were determined with the corresponding AlphaScreen® SureFire® assay kits (Perkin Elmer: 4E-BP1 Assay Kit Cat # TRG4E2S10K; Akt 1/2/3 p-Ser 473 #TGRA4S500 and Akt 1/2/3 p-Thr 308 #TGRA3S500 as well as IgG detection Kit #6760617M) as described in the manuals. All measurements where at least done in duplicates and confirmed by independent repetition.
Alternatively pAKT-S473 was measured using the “Akt Duplex” of the MULTI-SPOT® Assay System (Fa. Meso Scale Discovery, Cat#N41100B-1) following manufacturers instructions. Each assay used 20 μg of protein extract and measured total AKT and p-AKT content simultaneously in one well. All measurements where at least done in duplicates and confirmed by independent repetition. Values for P-AKT are expressed as percentage of P-AKT level compared to total-AKT content of the extracts.

T1 sequence (P31751 whole entry): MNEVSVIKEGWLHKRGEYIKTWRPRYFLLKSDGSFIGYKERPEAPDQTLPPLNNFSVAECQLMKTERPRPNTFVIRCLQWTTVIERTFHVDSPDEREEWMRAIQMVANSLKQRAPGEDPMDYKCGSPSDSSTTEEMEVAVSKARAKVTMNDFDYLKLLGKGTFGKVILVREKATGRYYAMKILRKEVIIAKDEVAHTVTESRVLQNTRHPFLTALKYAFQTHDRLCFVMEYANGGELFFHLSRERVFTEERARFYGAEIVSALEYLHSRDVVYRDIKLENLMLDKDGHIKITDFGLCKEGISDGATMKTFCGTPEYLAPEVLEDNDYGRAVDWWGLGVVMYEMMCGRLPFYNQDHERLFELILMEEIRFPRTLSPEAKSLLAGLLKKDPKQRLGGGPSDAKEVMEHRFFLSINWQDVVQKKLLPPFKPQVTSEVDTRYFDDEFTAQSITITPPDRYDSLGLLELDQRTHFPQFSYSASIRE

On to `NC1(c2ccc(-c3nc4ncc(-c5ccc(F)c(CO)c5)n4cc3-c3ccccc3)cc2)CCC1` [Example 6-1, (5-{7-[4-(1-Amino-cyclobutyl)-phenyl]-6-phenyl-imidazo[1,2-a]pyrimidin-3-yl}-2-fluoro-phenyl)-methanol], for which the results for the IC50 in experiment [1], in experiment [2] and in experiment [3] were 2100 nM, 629 nM and 540 nM, respectively.
